Measurements from US20230272401A1, “COMPOSITIONS FOR FLCN GENE MODULATION AND METHODS THEREOF” (GENETIC INTELLIGENCE, INC, priority 2020, published 2023).
e = 2'-O-(2-methoxyethyl) (MOE); d = 2'-deoxy (DNA); m = 2'-O-methyl

The substances below were run on human FLCN protein (assay: Antisense inhibition of human FLCN in HEK293T cells, IC50 (Western blot)). Details: 0 nM to 100 nM ASO, Lipofectamine, 2-day incubation, FLCN protein by Western blot.
Assay type: cell-based
Excerpt: The antisense oligonucleotides listed in this example have all nucleosides linked by modified phosphorothioate backbones. Bolded nucleosides presented in Table 17 indicate nucleosides that are modified with a 2′-MOE sugar modification. Underlined nucleosides presented in Table 17 indicate non-modified DNA nucleosides (deoxynucleotides). Nucleosides that are italicized indicate nucleosides with a 2′-OMe sugar modification. GI81, GI84, GI85, GI86, GI88, GI89 and GI90 are gapped sequences comprising a central sequence of deoxynucleotides, which are flanked on both sides by wing sequences consisting of 2′-MOE modified nucleotides, wherein the second nucleotide of the central sequence from the 5′ end of the oligonucleotide contains a 2′-OMe sugar modification.
These antisense oligonucleotides were tested in the human cell line HEK293T. HEK293T cells were seeded at 400,000 cells per well in a 6-well plate. After 1 day, various concentrations of antisense oligonucleotides ranging from 0 nM to 100 nM were transfected into the cells using Lipofectamine. After a 2-day incubation period, the cells were harvested to obtain whole cell lysates. The whole cell lysates were analyzed by Western blot and probed with a FLCN-specific antibody (CST #3697). The intensity of Western blot bands were quantified by FIJI (Image J) and used to quantify the expression levels of FLCN. The relative expression values of FLCN for the different treatment groups were calculated by normalizing with their respective α-Tubulin loading control, and presented as a percentage to that of the untreated control (which in this case comprised cells not transfected with ASOs). The potencies of these antisense oligonucleotides are reported in the form of IC50 values in Table 17.
Work on “GI88: gapped phosphorothioate ASO, 2′-MOE wings, 2′-OMe at second gap nucleotide, GCCTGGCGGACAATGCTG, Exon 5, SEQ ID NO 616 (sugars from the 5' end e4 d1 m1 d8 e4, all phosphorothioate, methylation of C not given here)” yielded an IC50 of 0.019 µM. “GI90: gapped phosphorothioate ASO, 2′-MOE wings, 2′-OMe at second gap nucleotide, CGGGTGCCCTGCAGCAAG, Exon 5, SEQ ID NO 618 (sugars from the 5' end e4 d1 m1 d8 e4, all phosphorothioate, methylation of C not given here)” showed an IC50 of 0.035 µM. In the case of “GI81: gapped phosphorothioate ASO, 2′-MOE wings, 2′-OMe at second gap nucleotide, TGGCTGATATATCCCGGG, Exon 5, SEQ ID NO 21 (sugars from the 5' end e4 d1 m1 d8 e4, all phosphorothioate, methylation of C not given here)”, the IC50 is reported as 0.014 µM.
